Source: paper PMC5876388 (Scientific Reports, 2018)
“Also recorded” adds a separate entry of the source. Where two headings read alike, the source gives them in different places.

Experiments:
[1] = tested on: Notch signaling (LS174T Notch cells); assay: Notch signaling transcriptional activity assay (luciferase reporter, T-REx system); type: cell-based; conditions: for IC50: read-out: IC50 of Notch signal inhibitory activity (luciferase)
From the text: We constructed a cell-based reporter assay with the T-Rex system to evaluate Notch signaling inhibitory activity. Without doxycycline (Dox), the tetracycline repressor (TetR) inhibits the expression of N-terminally FLAG-tagged mouse Notch1(1704–2531), which is 40 aa longer than NICD at the N-terminus. In the presence of Dox, Dox binds to the TetR to release the inhibition of expression of Notch1(1704–2531). Cleavage of Notch1(1704–2531) by γ-secretase generates NICD, which then translocates to the nucleus and forms a heterotrimer with RBP-J driving luciferase transcription (Fig. 2). This assay cells (LS174T Notch cells) was stably incorporated with pGL4.20 luciferase plasmid which has 12 × RBP-J binding site (12 copies of […])-β-globin promoter. Cell viability was measured using a fluorometric microculture cytotoxicity assay. […] The composition of the G. speciosa MeOH extract was partitioned successively with hexane, EtOAc, nBuOH, and water.
Figure 2 The T-REx assay system. Without Dox, expression of Notch1(1704–2531) is suppressed by TetR. The addition of Dox inactivates TetR to initiate expression of Notch1(1704–2531), which is then cleaved by endogenous γ-secretase to form NICD. NICD then translocates to the nucleus and forms a heterotrimer with RBP-J and MAML that binds to a 12× RBP-J binding site to drive luciferase expression. Luciferase activity was detected as Notch signaling pathway activity. Dox: doxycycline, TetR: tetracycline repressor, Luc.: luciferase.
Assay cells (LS174T Notch cells: 2 × 10^4 cells/well) were incubated in a 96-well white plate at 37 °C for 12 h. After incubation, 50 ng/mL Dox was added to each well to induce expression of exogenous Notch1(1704–2531) protein. After incubation at 37 °C for 12 h, the medium was changed to Dox-free medium containing individual samples. Luciferase activity was measured after treatment at 37 °C for 12 h. Cell viability was evaluated by the FMCA method at the same time. These assays were performed in 0.1% DMSO (n = 3). Error bars represent SD.
In a 96-well white plate, Cells (LS174T Notch cells; 2 × 10^4 cells per well) were cultured at 37 °C for 12 h. To express Notch1(1704–2531) protein in the cells, doxycycline (50 ng/mL) was added to each well, and cells were cultured at 37 °C for 12 h. Medium was changed to doxycycline-free medium containing each sample, then cells were incubated with at 37 °C for 12 h. A microplate luminometer (Thermo Fisher Scientific Inc., Waltham, USA) and the Bright-Glo™ Luciferase Assay System (Promega Co., Madison, USA) were used for measurement of Luciferase activity. Fluorometric Microculture Cytotoxicity Assay (FMCA) was used for measurement of cell viability of the sample-treated cells. After incubation of assay cells (2×10^4 cells per well) in a 96-well black plate at 37 °C for 24 h, samples addition was performed at the same time as the luciferase assay. The assay cells were cultures at 37 °C for 12 h. A fluorescence plate reader (Thermo Fisher Scientific Inc., Waltham, USA) was used for determination of cell viability by FMCA.

HPB-ALL cells = assay: Cytotoxicity test, AlamarBlue
Description: HPB-ALL cells (1 × 10^4 cells per well) were incubated in 96-well black plates at 37 °C for 72 h. Media also contained different concentrations of compound. After incubation, AlamarBlue was added 10 μL per well. After incubation for 4 h, using a fluorescence plate reader, fluorescence was measured and cell viability was determined. Data are presented as the mean with SD from three independent experiments. […] The effect on protein expression was analyzed by Western blotting. β-Actin was used as internal control. (D,E) Relative protein levels of NICD and HES1 analyzed by densitometry. Data are presented as the mean with SD from three independent experiments. *P < 0.05 is considered statistically significant. P values were analyzed by Student’s t test.
HPB-ALL cells (1 × 10^4 cells per well) were incubated in 96-well black plates in 100 μL of RPMI-1640 medium with 10% FBS, Streptomycin (100 μg/mL) and Penicillin (100 unit/mL). Media also contained different concentrations of compound. Cells were incubated at 37 °C for 72 h. After incubation, AlamarBlue (00–025, DAL1025; Thermo Fisher Scientific Inc., Waltham, USA) was added 10 μL per well. After incubation for 4 h, using a fluorescence plate reader (Thermo Fisher Scientific Inc., Waltham, USA), fluorescence was measured and cell viability was determined.

[2] = Homo sapiens, LS174T Notch cells, 12 h treatment after Dox induction
[3] = LS174T Notch cells, 12 h treatment after Dox induction

| Compound | IC50 [1, 2] | IC50 of Notch signal inhibitory activity (luciferase) [1, 3] | further results |
| --- | --- | --- | --- |
| COc1c(O)cc2oc3cc4c(c(O)c3c(=O)c2c1C/C=C(\C)CCC=C(C)C)C=CC(C)(C)O4 [Compound 11, fuscaxanthone A] | 11.7 µM | – | – |
| COc1c(O)cc2oc3cc(O)c(CC=C(C)C)c(O)c3c(=O)c2c1CC=C(C)C [Compound 1, α-mangostin] | 8 µM | – | – |
| COc1cc2oc3cc(O)c(CC=C(C)C)c(O)c3c(=O)c2c(CC=C(C)C)c1O [Compound 8, 6-methoxy-γ-mangostin] | > 40 µM | weak activity or were inactive | – |
| CC(C)=CCC/C(C)=C/Cc1c(O)c(O)cc2oc3cc(O)c(CC=C(C)C)c(O)c3c(=O)c12 [Compound 4, norcowanin] | 10.5 µM | – | – |
| COc1cc2oc3cc(O)c(OC)c(CC=C(C)C)c3c(=O)c2c(O)c1CC=C(C)C [Compound 7, β-mangostin] | 7.5 µM | – | – |
| COc1cc2oc3cc(O)c(CC=C(C)C)c(O)c3c(=O)c2c(CC=C(C)C)c1OC [Compound 10, cowaxanthone B] | 15 µM | – | – |
| COc1c(O)cc2oc3cc4c(c(O)c3c(=O)c2c1CC=C(C)C)C=CC(C)(C)O4 [Compound 9, 9-hydroxycalabaxanthone] | 19.6 µM | – | – |
| COc1cc2c(=O)c3c(O)c(C/C=C(\C)CCC=C(C)C)c(O)cc3oc2cc1O [Compound 6, cowaxanthone] | – | weak activity or were inactive; also recorded: inactive | – |
| C=C(C)c1cc2c(O)c3c(=O)c4c(CC=C(C)C)c(OC)c(O)cc4oc3cc2o1 [Compound 12] | – | weak activity or were inactive; also recorded: inactive | – |
| COc1c(O)cc2oc3cc(O)c(C/C=C(/C)CO)c(O)c3c(=O)c2c1C/C=C(\C)CCC=C(C)C [Compound 3, cowanol] | – | – | IC50 ([1]; Homo sapiens, LS174T, 12 h): 7.3 µM |
| C[C@H](NC(=O)Cc1cc(F)cc(F)c1)C(=O)N[C@H](C(=O)OC(C)(C)C)c1ccccc1 [DAPT, N-[N-(3,5-difluorophenacetyl)-L-alanyl]-S-phenylglycine t-butyl ester, reference compound] | – | – | IC50 [1, 3]: 0.12 µM; IC50 (HPB-ALL cells): > 20 µM |
| COc1c(O)cc2oc3cc(O)cc(O)c3c(=O)c2c1C/C=C(\C)CCC=C(C)C [Compound 5, rubraxanthone] | > 40 µM | weak activity or were inactive | – |
